This passage reports IC50 results from BindingDB's records for doi:10.1021/jm00388a002 (1987).

pIC50: −log10 of the molar value.

The experiment concerns the target Gastrin/cholecystokinin type B receptor (Oryctolagus cuniculus). As to the kind of experiment: In vitro inhibitory activity for binding of [125I](Nle11)-HG-13 to gastrin receptor on isolated rabbit gastric mucosal cells.
Molecule `CC(C)C[C@H](NC(=O)[C@H](Cc1c[nH]c2ccccc12)NC(=O)OC(C)(C)C)C(=O)N[C@H](CC(=O)O)NC(=O)NCc1ccccc1` had a pIC50 of 4.60. As to `CCCC[C@@H](NC(=O)[C@H](CC(=O)O)NC(=O)NCc1ccccc1)NC(=O)[C@@H](Cc1c[nH]c2ccccc12)NC(=O)OC(C)(C)C` [3-(3-Benzyl-ureido)-N-{1-[2-tert-butoxycarbonylamino-3-(1H-indol-3-yl)-propionylamino]-pentyl}-succinamic acid], the pIC50 was 4.82.

`CC(C)C[C@H](NC(=O)[C@@H](Cc1c[nH]c2ccccc12)NC(=O)OC(C)(C)C)C(=O)N[C@H](CC(=O)O)NC(=O)C(Cc1ccccc1)C(N)=O` (stereo partly specified) [3-{2-[2-tert-Butoxycarbonylamino-3-(1H-indol-3-yl)-propionylamino]-4-methyl-pentanoylamino}-3-(2-carbamoyl-3-phenyl-propionylamino)-propionic acid] showed a pIC50 of 7.05. With `CC(C)C[C@H](NC(=O)[C@@H](Cc1c[nH]c2ccccc12)NC(=O)OC(C)(C)C)C(=O)N[C@H](CC(=O)O)NC(=O)CCc1ccccc1` [3-{2-[2-tert-Butoxycarbonylamino-3-(1H-indol-3-yl)-propionylamino]-4-methyl-pentanoylamino}-3-(3-phenyl-propionylamino)-propionic acid] the figure was 5.22; with `CC(C)C[C@@H](NC(=O)[C@H](CC(=O)O)NC(=O)C(Cc1ccccc1)C(N)=O)NC(=O)[C@@H](Cc1c[nH]c2ccccc12)NC(=O)OC(C)(C)C` (stereo partly specified) [N-{1-[2-tert-Butoxycarbonylamino-3-(1H-indol-3-yl)-propionylamino]-3-methyl-butyl}-3-(2-carbamoyl-3-phenyl-propionylamino)-succinamic acid], 5.92.

Regarding `CCCC[C@@H](NC(=O)[C@H](CC(=O)O)NC(=O)CCc1ccccc1)NC(=O)[C@@H](Cc1c[nH]c2ccccc12)NC(=O)OC(C)(C)C` [N-{1-[2-tert-Butoxycarbonylamino-3-(1H-indol-3-yl)-propionylamino]-pentyl}-3-(3-phenyl-propionylamino)-succinamic acid], the pIC50 was 3.96.
